The structures appear in SMILES notation.

16 compounds from ChEMBL document CHEMBL2396625 (Bioorg Med Chem Lett, 2013) can be followed below.

The test system of one data set is DLD-1. The data set is described as follows: Antimigratory activity against human DLD1 cells overexpressing PRL3 at 10 ug/ml after 20 hrs by crystal violet staining-based light microscopic analysis relative to control. In kind it is functional. Conditions: DLD-1, 20 h.
Data set [1] has as its target Protein tyrosine phosphatase type IVA 3 (Homo sapiens, UniProt O75365). The data set is described as follows: Inhibition of human His6-tagged full length PRL3 assessed as inhibition of DiFMUP dephosphorylation at 5 ug/ml relative to control.
Data set [2] can be described thus: Cytotoxicity against human DLD1 cells overexpressing PRL3 assessed as cell viability at 10 ug/ml after 24 hrs by WST-1 assay relative to control. Type of data set: cell-based. Conditions: DLD-1 cells overexpressing PRL3, read-out: Activity.

Sequence of Protein tyrosine phosphatase type IVA 3 (O75365 whole entry): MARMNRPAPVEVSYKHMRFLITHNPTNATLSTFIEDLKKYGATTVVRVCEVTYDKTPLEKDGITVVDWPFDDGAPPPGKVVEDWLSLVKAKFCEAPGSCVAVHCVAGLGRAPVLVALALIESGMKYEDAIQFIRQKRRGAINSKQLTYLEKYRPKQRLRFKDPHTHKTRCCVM

In the data set on DLD-1, `O=C1NC(=S)S/C1=C\C=C\c1ccccc1O` returned an inhibition at 10 µg/mL of 65%. Also, in data set [1], the inhibition came to 51.9%. Further, the viability at 24 h, 10 ug/ml in data set [2] came out at 96.3%.
In the case of `Cc1ccccc1COc1ccccc1/C=C/C=C1\SC(=S)NC1=O`, testing at 10 µg/mL in the data set on DLD-1 gave an inhibition of 73%. Besides, in data set [1], the inhibition came out at 52.8%. In data set [2], the viability at 24 h, 10 ug/ml was found to be 75.5%.
Take `O=C1NC(=O)/C(=C/C=C/c2ccccc2OCc2ccccc2Br)S1`: the inhibition at 10 µg/mL in the data set with DLD-1 was 50%. The inhibition in data set [1] worked out at 22.5%. The viability at 24 h, 10 ug/ml in data set [2] is 37.7%.
Consider `O=C1NC(=S)S/C1=C\C=C\c1cccnc1`, for which, in the data set with DLD-1, 10 µg/mL produced 45% inhibition. The inhibition in data set [1] turned out to be 47.1%. Also, in data set [2], the viability at 24 h, 10 ug/ml was determined as 105%.
In the same order, the values of `COc1cccc(COc2ccccc2/C=C/C=C2\SC(=S)NC2=O)c1` are 82%, 52.9% and 87.1%.
On to `O=C1NC(=S)S/C1=C\C=C\c1ccccc1OC(=O)c1ccccc1`, for which, in the data set on DLD-1, the inhibition at 10 µg/mL was 40%. Besides, the inhibition in data set [1] was found to be 30.6%. Further, the viability at 24 h, 10 ug/ml in data set [2] came out at 99.2%.
Turning to `O=C1NC(=S)S/C1=C\C=C\c1ccccc1NC(=O)c1ccccc1`, the inhibition at 10 µg/mL in the data set on DLD-1 came to 68%. In data set [1], the inhibition came to 35.2%. The viability at 24 h, 10 ug/ml in data set [2] was 97.1%.
In turn, `O=C1NC(=S)S/C1=C\C=C\c1ccccc1OS(=O)(=O)c1ccccc1` gave an inhibition at 10 µg/mL with DLD-1 of 80%. Besides, in data set [1], the inhibition came to 64.2%. In data set [2], the viability at 24 h, 10 ug/ml turned out to be 83.1%.
In the same order, the values of `O=C1NC(=S)S/C1=C\C=C\c1ccccc1OCc1ccccc1Br` are 78%, 63.1% and 78.8%.
The like results for `O=C1NC(=S)S/C1=C\C=C\c1ccccc1OCc1ccncc1` were, in that order, 62%, 39.4% and 96.5%.
The like results for `O=C1NC(=S)S/C1=C\C=C\c1ccccc1Cl` were, in that order, 80%, 53.9% and 81.9%.
Regarding `O=C1NC(=S)S/C1=C\C=C\c1ccccc1`, at 10 µg/mL the inhibition with DLD-1 was 81%. Moreover, the inhibition in data set [1] came out at 37.4%. Besides, in data set [2], the viability at 24 h, 10 ug/ml amounted to 96.6%.
The like results for `O=C1NC(=S)S/C1=C\C=C\c1ccccc1OCc1ccccc1` were, in that order, 65%, 49.5% and 87.9%.
In the case of `O=C1NC(=S)S/C1=C\C=C\c1ccccc1OCc1ccccc1C(F)(F)F`, the inhibition at 10 µg/mL in the data set with DLD-1 was found to be 80%. In data set [1], the inhibition worked out at 40.8%. Besides, the viability at 24 h, 10 ug/ml in data set [2] is 41.5%.
In turn, `O=C1NC(=S)S/C1=C\C=C\c1cc(Br)ccc1OCc1ccccc1Br` showed an inhibition at 10 µg/mL in the data set with DLD-1 of 71%. For the same compound, the inhibition in data set [1] was 40.3%. Moreover, the viability at 24 h, 10 ug/ml in data set [2] was 72.3%.
`COc1ccccc1/C=C/C=C1\SC(=S)NC1=O` showed an inhibition at 10 µg/mL in the data set on DLD-1 of 69%. Besides, in data set [1], the inhibition stood at 41.7%. In addition, the viability at 24 h, 10 ug/ml in data set [2] stood at 98.8%.
